Seven compounds from US11186567B2, “AMPA receptor potentiators” (UNIVERSITY COLLEGE CARDIFF CONSULTANTS LIMITED, priority 2017, dated 2021) can be followed below.

Each structure is given as a SMILES string.

Data set [1] can be described thus: Intrinsic clearance (CLi), rat. The class given is in vitro ADME. The settings on record: 0.5 mg/mL microsomes, 2 μM test article, 2 mM NADPH, 37° C. The procedure:
(§1) For example, compounds of the invention preferably have a CLi of less than 100 μL/min/mg in rat and human microsomes. The CLi can be measured using known methods, such as those illustrated in the Examples.
(§2) The in-vitro intrinsic clearance of the compounds was measured in rat and human […] using the following assay.
(§3) 5 μL microsomes (20 mg/ml, Corning BV) diluted into 95 μL PBS (pH 7) containing 0.2% DMSO and 4 μM test article were incubated at 37° C. shaking at 1000 rpm prior the addition of 100 μL of pre-warmed 4 mM NADPH in PBS (final concentrations: 0.5 mg/mL microsomes, 2 μM test article, 0.1% DMSO and 2 mM NADPH). After mixing thoroughly the T=0 sample (40 μL) was immediately quenched into ice cold methanol containing 2 μM internal standard (Carbemazapine). Three further samples were quenched in the same way at 3, 9 and 30 min. Samples were incubated on ice for 30 min before centrifugation at 4000 rpm+ for […]. The supernatant was analysed via LCMS and the test article:carbemazapine peak area ratios calculated to determine the rate of substrate depletion.

Data set [2] can be described thus: Intrinsic clearance (CLi), human. The class given is in vitro ADME. The following applies: 0.5 mg/mL microsomes, 2 μM test article, 2 mM NADPH, 37° C. How it is done: as §1, §2, §3

Take `Cc1c(Cl)c(C(F)(F)F)nn1-c1ccc(CN2CCCC2=O)cc1` [Comparative Example, reference compound]: in data set [1], the “CLi Rat” value is 878 µL/min/mg. This compound yielded a CLi human in data set [2] of 71 µL/min/mg.

`Cc1c(CO)c(C(F)(F)F)nn1-c1ccc(CN2CCCC2=O)cc1` [Example 1, 1-[[4-[4-(Hydroxymethyl)-5-methyl-3-(trifluoromethyl)pyrazol-1-yl]phenyl]methyl]pyrrolidin-2-one]: the “CLi Rat” value in data set [1] is 8.4 µL/min/mg. Moreover, the CLi human in data set [2] stood at 4.3 µL/min/mg.

Consider `CCc1c(CO)c(C(F)(F)F)nn1-c1ccc(CN2CCCC2=O)cc1` [Example 2, 1-[[4-[5-Ethyl-4-(hydroxymethyl)-3-(trifluoromethyl)pyrazol-1-yl]phenyl]methyl]pyrrolidin-2-one], for which, in data set [1], the “CLi Rat” value is 3.7 µL/min/mg. Besides, the CLi human in data set [2] was found to be 2.6 µL/min/mg.

With `CC(C)c1c(CO)c(C(F)(F)F)nn1-c1ccc(CN2CCCC2=O)cc1` [Example 3, 1-[[4-[4-(Hydroxymethyl)-5-isopropyl-3-(trifluoromethyl)pyrazol-1-yl]phenyl]methyl]pyrrolidin-2-one], the “CLi Rat” value in data set [1] came to 2.2 µL/min/mg. In data set [2], this compound yielded a CLi human of 7.9 µL/min/mg.

Regarding `COCc1c(C)c(C(F)(F)F)nn1-c1ccc(CN2CCCC2=O)cc1` [Example 5, 1-[[4-[5-(Methoxymethyl)-4-methyl-3-(trifluoromethyl)pyrazol-1-yl]phenyl]methyl]pyrrolidin-2-one], in data set [1], the “CLi Rat” value came to 87.4 µL/min/mg. This compound also displayed a CLi human in data set [2] of 47.4 µL/min/mg.

For `Cc1c(C(F)(F)F)nn(-c2ccc(CN3CCCC3=O)cc2)c1C#N` [Example 6, 4-Methyl-2-[4-[(2-oxopyrrolidin-1-yl)methyl]phenyl]-5-(trifluoromethyl)pyrazole-3-carbonitrile], the “CLi Rat” value in data set [1] came out at 70.2 µL/min/mg. Besides, in data set [2], the CLi human was determined as 6.2 µL/min/mg.

Turning to `Cc1c(C(F)(F)F)nn(-c2ccc(CN3CCCC3=O)cc2)c1C(C)O` (centres unmarked) [Example 7, 1-[[4-[5-(1-Hydroxyethyl)-4-methyl-3-(trifluoromethyl)pyrazol-1-yl]phenyl]methyl]pyrrolidin-2-one], the “CLi Rat” value in data set [1] was 37.7 µL/min/mg. Further, the CLi human in data set [2] worked out at 31.1 µL/min/mg.
